Where two headings read alike, the source gives them in different places.
Legend:
[1] = system: Bacillus pumilus strain K-1; assay: Inhibition of bacterial growth, filter paper on inoculated agar plates; format: cell-based; details: for zone of inhibition at 1000 µM / zone of inhibition at 100 µM: Bacillus pumilus, read-out: Diameter of Inhibition
Protocol: Nutrient broth was prepared by mixing 8 grams of BACTO dehydrated nutrient broth per liter of distilled water. […] Samples of the nutrient broth were then inoculated with Bacillus pumilus strain K-1 culture. […]
Nutrient agar was prepared by mixing 23 grams of BACTO nutrient agar per liter of distilled water. The nutrient agar was sterilized in the same way as the nutrient broth. After it has cooled to about 45° C. 250 ml of the nutrient agar solution was aeseptically inoculated with 5 ml of the Bacillus pumilus, K-1 culture prepared in (A), above. Plates of the inoculated nutrient agar were then poured and allowed to harden.
[…] To minimize possible photocatalyzed reactions of the dyes, all preparations were performed under yellow lights and all incubations were performed in the dark.
Schleider and Schuell #740-E filter paper (12.7 mm diameter) was dipped in the dye solution, touched to the side of the beaker to removed excess dye, and placed in the center of the inoculated agar plates (prepared in (B) above). […] The plates were then examined to determine if bacterial growth had been affected by the dye-containing filter paper. […]
Control plates were prepared in which the filter paper contained methanol or a 0.2 molar aqueous solution of phenol. […]

[2] = not told
Protocol: If a published reduction potential is not available, suitable techniques for measuring reduction potential are available and can be used. […] This technique involves measurement at 20° C., of an approximately 10^-4 molar solution of the dye in an electrolyte, such as methanol which is 0.05 molar in lithium chloride, using a dropping mercury electrode. The potential values are reported by reference to a silver-silver chloride electrode in a saturated solution of potassium chloride at 20° C.

[3] = Oxidation potential (Eox) of the dye; format: physicochemical; details: Tables I, II, V, VI
[4] = system: Sea Urchin Eggs; assay: Inhibition of cell division in fertilized sea urchin eggs; format: cell-based; details: arbitrary scale 0 to 5, 5 most active; dye 10^-5 to 10^-6 molar, 60 minutes after fertilization
Protocol: To suspensions in filtered sea water of fertilized sea urchin eggs there was added, three minutes after fertilization, methanolic solutions of the dyes in an amount sufficient to yield a final concentration of dye of between 10^-5 and 10^-6 molar. The final concentration of methanol was, at a maximum 1×10^-4 molar. The eggs were visually observed at 60 minutes after fertilization to determine if cell division and the formation of mitotic apparatus had been inhibited. A rating was assigned based on the concentration of dye required to inhibit cell division and synthesis of DNA.

[5] = system: Bacillus pumilus (K-1)
Protocol: This can be accomplished by contacting a given concentration of the dye with the cells, removing the cells from the dye solution and then comparing the optical density (at λmax) of the remaining dye solution with a control containing the original concentration of the dye. The percentage decrease in optical density indicates the percentage of dye which has been bound to the cells.
The culture was collected by centrifugation at 5,000×g. for 10 minutes, and the resultant pellet was washed several times in cold 0.05 M potassium phosphate buffer, pH 7.0. The pellet was resuspended in the buffer solution to a final optical density of 1.0 at 620 nm as measured with a Bausch and Lomb Spectronic 20.
One-tenth ml of dye solution (1 mg/ml in methanol) was added to a tube containing 5 ml of cell suspension described above and a control tube containing 0.05 M potassium phosphate buffer, pH 7.0. All tubes were well agitated using a Vari-Whirl Mixer (Will Scientific Co.) and then centrifuged at 10,000×g. for 10 minutes.
The percent binding of dye to the cells for each dye, was determined by comparison of the density at λmax of the control supernatant sample with the density at λmax of the supernatant of the cell sample.

[6] = K1, 72 h, Tables V and VI, 10^-3 molar, three days
[7] = K1, Table II, 10^-4 molar, 26° C., forty-eight hours
[8] = Table II, 10^-4 molar, 26° C., forty-eight hours

## CCN1C(=CC=Cc2oc3ccc(C)cc3[n+]2CC)Oc2ccc(C)cc21 [7,5,5'-dimethyl]
[1]; [6]
  zone of inhibition at 1000 µM: 27 mm
[2]
  ER: -1.28
[3]
  Eox: +.96

## CCN1C(=CC=Cc2oc3cc(Cl)ccc3[n+]2CC)Oc2cc(Cl)ccc21 [7,6,6'-dichloro]
[1]; [6]
  zone of inhibition at 1000 µM: 28.5 mm
[2]
  ER: -1.17
[3]
  Eox: +1.07

## CCN1C(=CC=Cc2oc3cc(OC)ccc3[n+]2CC)Oc2cc(OC)ccc21 [7,6,6'-dimethoxy]
[1]; [6]
  zone of inhibition at 1000 µM: 28.5 mm
[2]
  ER: -1.31
[3]
  Eox: +.84

## CCN1C(=CC=Cc2oc3cc(S(=O)(=O)[O-])ccc3[n+]2CC)Oc2cc(S(=O)(=O)O)ccc21 [7,6,6'-disulfo]
[1]; Tables V and VI, 10^-3 molar, three days
  Diameter of Inhibition: None
[2]
  ER: -1.26
[3]
  Eox: +1.00

## CCN1C(=CC=Cc2sc3ccc(Cl)cc3[n+]2CC)Sc2ccc(Cl)cc21 [17,5,5'-dichloro]
[1]; [6]
  zone of inhibition at 1000 µM: 14 mm
[2]
  ER: -.86
[3]
  Eox: +.85

## CCN1C(=CC=Cc2scc(-c3ccccc3)[n+]2CC)SC=C1c1ccccc1 [Dye 3]
[4]
  Sea Urchin Eggs Activity: +5
[1]
  Activity Rating: 29
[1]; K1, Table I, 10^-4 molar, 26° C., fifty hours, dark
  zone of inhibition at 100 µM: 18.5 mm
[1]; [7]
  zone of inhibition at 100 µM: 19 mm
[1]; K1, Table IX, 10^-4 M
  zone of inhibition at 100 µM: 19 mm
[2]
  ER: -1.35
  reduction potential (ER): -1.35 volts
[5]
  % Bound: 11.2%

## CCN1C(=CC=Cc2oc3cc(OC)ccc3[n+]2CC)Oc2cc(OC)ccc21 [Dye 4]
[4]
  Sea Urchin Eggs Activity: +4
[1]
  Activity Rating: 71
[1]; K1, Table IX, 10^-3 M
  zone of inhibition at 1000 µM: 28.5 mm
[2]
  reduction potential (ER): -1.31 volts
[5]
  % Bound: 97.2%

## CCN1C(=CC=Cc2oc3ccc(C)cc3[n+]2CC)Oc2ccc(C)cc21 [Dye 5]
[4]
  Sea Urchin Eggs Activity: +4
[1]
  Activity Rating: 65
[1]; K1, Table IX, 10^-3 M
  zone of inhibition at 1000 µM: 27 mm
[2]
  reduction potential (ER): -1.28 volts
[5]
  % Bound: 97.6%

## CCN1C(=CC=Cc2oc3ccc(OC(C)=O)cc3[n+]2CC)Oc2ccc(OC(C)=O)cc21 [Dye 10]
[1]
  Activity Rating: 80
[1]; K1, Table IX, 10^-3 M
  zone of inhibition at 1000 µM: 28.5 mm
[2]
  ER: -1.17
  reduction potential (ER): -1.17 volts
[5]
  % Bound: 68.8%

## CCN1C(=CC(C)=Cc2sc3ccccc3[n+]2CC)Sc2ccccc21 [Dye 11]
[1]
  Activity Rating: 25
[1]; [7]
  zone of inhibition at 100 µM: 18 mm
[1]; K1, Table IX, 10^-4 M
  zone of inhibition at 100 µM: 18 mm
[2]
  ER: -1.16
  reduction potential (ER): -1.16 volts
[5]
  % Bound: 98.9%

## CCN1C(=Cc2sc3ccccc3[n+]2C)C=Cc2ccccc21 [Dye 14]
[1]
  Activity Rating: 11
[1]; [7]
  zone of inhibition at 100 µM: 15 mm
[1]; K1, Table IX, 10^-4 M
  zone of inhibition at 100 µM: 15 mm
[2]
  ER: -1.08
  reduction potential (ER): -1.08 volts
[5]
  % Bound: 58.3%

## CCC(=Cc1sc2ccc(Cl)cc2[n+]1CC)C=C1Sc2ccc(Cl)cc2N1CC [Dye 15]
[4]
  Sea Urchin Eggs Activity: +4
[1]
  Activity Rating: 04
[1]; [7]
  zone of inhibition at 100 µM: 13.5 mm
[1]; K1, Table IX, 10^-4 M
  zone of inhibition at 100 µM: 13.5 mm
[2]
  ER: -1.06
  reduction potential (ER): -1.06 volts
[5]
  % Bound: 74.9%

## CCN1C(=Cc2ccc3ccccc3[n+]2CC)C=Cc2ccccc21 [Dye 16]
[4]
  Sea Urchin Eggs Activity: +5
[1]
  Activity Rating: 100
[1]; [7]
  zone of inhibition at 100 µM: 25.5 mm
[1]; K1, Table IX, 10^-4 M
  zone of inhibition at 100 µM: 25.5 mm
[2]
  ER: -1.03
  reduction potential (ER): -1.03 volts
[5]
  % Bound: 28.7%

## CCN1C(=CC=Cc2sc3cc4ccccc4cc3[n+]2CC)Sc2cc3ccccc3cc21 [Dye 19]
[4]
  Sea Urchin Eggs Activity: 0
[5]
  % Bound: 100%

## CCN1C(=CC=Cc2sc3ccc(Cl)cc3[n+]2CC)Sc2ccc(Cl)cc21 [Dye 20]
[4]
  Sea Urchin Eggs Activity: +3
[1]
  Activity Rating: 9
[1]; K1, Table IX, 10^-3 M
  zone of inhibition at 1000 µM: 14 mm
[2]
  reduction potential (ER): -0.86 volts
[5]
  % Bound: 76.3%

## CCN1C(=CC=CC=Cc2sc3ccccc3[n+]2CC)Sc2ccccc21 [Dye 22]
[1]; [7]
  zone of inhibition at 100 µM: 15 mm
[1]; K1, Table IX, 10^-4 M
  zone of inhibition at 100 µM: 15 mm
[1]; Table IX, 10^-4 M, relative to phenol concentration giving equal diameter, Dye 7 = 100
  Activity Rating: 11
[2]
  reduction potential (ER): -0.83 volts
[5]
  % Bound: 98.4%

## Clc1ccc2nc3c(nc2c1)N(c1ccccc1)C(=CC=Cc1n(-c2ccccc2)c2nc4ccc(Cl)cc4nc2[n+]1-c1ccccc1)N3c1ccccc1 [Dye 25]
[4]
  Sea Urchin Eggs Activity: 0
[2]
  reduction potential (ER): -0.65 volts
[5]
  % Bound: 92.6%

## CCN1C(=CN=Nc2sc3ccccc3[n+]2CC)Sc2ccccc21 [Dye 26]
[4]
  Sea Urchin Eggs Activity: +2
[1]
  Activity Rating: 8
[1]; [7]
  zone of inhibition at 100 µM: 14.5 mm
[1]; K1, Table IX, 10^-4 M
  zone of inhibition at 100 µM: 14.5 mm
[2]
  reduction potential (ER): -0.64 volts
[5]
  % Bound: 56.3%
[3]
  Eox: > +1.00

## CCN1C(=CC=Cc2sc3cc4ccccc4nc3[n+]2CC)Sc2cc3ccccc3nc21 [Dye 27]
[4]
  Sea Urchin Eggs Activity: 0
[1]
  Activity Rating: 0
[1]; [8]
  Diameter of Inhibition: None
[1]; Table IX, 10^-4 M
  Diameter of Inhibition: None
[2]
  reduction potential (ER): -0.63 volts
[3]
  Eox: > +1.00

## CCN1C(=Cc2ccc3ccccc3[n+]2CC)Sc2cc([N+](=O)[O-])ccc21 [Dye 28]
[1]
  Activity Rating: 0
[1]; [8]
  Diameter of Inhibition: None
[1]; Table IX, 10^-4 M
  Diameter of Inhibition: None
[2]
  reduction potential (ER): -0.60 volts
[5]
  % Bound: 57.3%

## Cn1c(-c2ccccc2)c(C=Cc2sc3cc([N+](=O)[O-])c(Cl)cc3[n+]2C)c2ccccc21 [Dye 31]
[4]
  Sea Urchin Eggs Activity: 0
[1]
  Activity Rating: 0
[1]; [8]
  Diameter of Inhibition: None
[1]; Table IX, 10^-4 M
  Diameter of Inhibition: None
[2]
  reduction potential (ER): -0.41 volts
[5]
  % Bound: 54.2%
[3]
  Eox: > +1.00

## CC[n+]1c(C=Cc2c(-c3cccnc3)n(C)c3ccccc23)sc2cc([N+](=O)[O-])ccc21 [Dye 32]
[4]
  Sea Urchin Eggs Activity: +2
[1]
  Activity Rating: 0
[1]; [8]
  Diameter of Inhibition: None
[1]; Table IX, 10^-4 M
  Diameter of Inhibition: None
[2]
  reduction potential (ER): -0.32 volts
[5]
  % Bound: 61.0%
[3]
  Eox: > +1.00

## Cn1c(-c2ccccc2)c(C=CC=C2C(c3ccccc3)=[N+](C)c3c2ccc2ccccc32)c2ccc3ccccc3c21 [Dye 34]
[4]
  Sea Urchin Eggs Activity: 0
[1]
  Activity Rating: 0
[1]; Table I, 10^-4 molar, 26° C., fifty hours, dark
  Diameter of Inhibition: None
[1]; [8]
  Diameter of Inhibition: None
[1]; Table IX, 10^-4 M
  Diameter of Inhibition: None
[2]
  reduction potential (ER): -0.11 volts
[5]
  % Bound: 75.0%

Source: patent US4232121A, “Process for selecting methine dyes which inhibit cell growth” (Eastman Kodak Company, priority 1978, dated 1980)
